Laboratory results from patent publication US6949250B2, “Selective algaecides for control of cyanochloronta” (The United States of America as represented by the …, priority 2002, dated 2005).
Where two headings read alike, the source gives them in different places.

Experiments:
[1] = test system: Selenastrum capricornutum; assay: 96-hour IC50 determination; assay type: cell-based; settings: 96-hour 50% inhibition concentration, read-out: IC50, Selanastrum capricornutum
Protocol: (§1) The green alga Selenastrum capricornutum (obtained from the United States Environmental Protection Agency, Corvallis, Oreg.) was used as the representative green algal species in the bioassay since it is a common species found in southeastern United States catfish ponds. […] In addition, a 96-hour 50% inhibition concentration (IC50) was determined for DNA1-19-1 and DNA2-59-1 by using the method described by Schrader et al. (1998b). Stock solutions of DNA1-19-1 and DNA2-59-1 were prepared so that final concentrations screened for 96-hour IC50 determinations were as follows: 1) 0, 0.01, 0.033, 0.1, 0.333, 1.0, 3.3, and 10.0 μM DNA1-19-1 for both O. perornata and S. capricornutum; 2) 0, 0.003, 0.01, 0.033, 0.1, 0.333, 1.0, and 3.333 μM DNA2-59-1 for O. perornata; and 3) 0, 0.1, 0.333, 1.0, 3.333, 10.0, 33.333, and 100.0 μM DNA2-59-1 for S. capricornutum. Estimation of the IC50 was determined by plotting 96-hour absorbance readings against logarithmic dilution values of the anthraquinone analogs.
(§2) The green alga Selenastrum capricornutum (obtained from the United States Environmental Protection Agency, Corvallis, Oreg.) was used as the representative green algal species in the bioassay since it is a common species found in southeastern United States catfish ponds. […] Stock solutions of DNA1-19-1 and DNA2-59-1 were prepared so that final concentrations screened for 96-hour IC50 determinations were as follows: 1) 0, 0.01, 0.033, 0.1, 0.333, 1.0, 3.3, and 10.0 μM DNA1-19-1 for both O. perornata and S. capricornutum; 2) 0, 0.003, 0.01, 0.033, 0.1, 0.333, 1.0, and 3.333 μM DNA2-59-1 for O. perornata; and 3) 0, 0.1, 0.333, 1.0, 3.333, 10.0, 33.333, and 100.0 μM DNA2-59-1 for S. capricornutum. Estimation of the IC50 was determined by plotting 96-hour absorbance readings against logarithmic dilution values of the anthraquinone analogs.

[2] = test system: Oscillatoria perornata; assay: 96-hour IC50 determination; assay type: cell-based; settings: for IC50: 96-hour 50% inhibition concentration; for selective toxicity towards O. perornata compared to S. capricornutum (result in words): based on laboratory screening and IC50 results
Protocol: as §1, §2

[3] = Solubility in water; assay type: physicochemical
[4] = test system: Selenastrum capricornutum; assay: Rapid bioassay screening for selective algicides (LOEC, LCIC); assay type: cell-based; settings: rapid screening
Excerpt: (§3) These were screened in the laboratory by the method of Schrader et al. (K. K. Schrader, M. Q. de Regt, C. S. Tucker and S. O. Duke, A rapid bioassay for selective algicides. Weed Technol. (1997), vol. 11, pp. 767-774) for algicidal activity.
(§4) The anthraquinone derivatives were screened for selective toxicity towards Oscillatoria perornata, previously isolated from a Mississippi catfish pond, using the method of Schrader et al. (1997). The green alga Selenastrum capricornutum (obtained from the United States Environmental Protection Agency, Corvallis, Oreg.) was used as the representative green algal species in the bioassay since it is a common species found in southeastern United States catfish ponds. Absorbance readings were graphed, and graphs were used to determine the LOEC (lowest-observed-effect concentration) and the LCIC (lowest-complete-inhibition concentration) for each anthraquinone analog. In addition, a 96-hour 50% inhibition concentration (IC50) was determined for DNA1-19-1 and DNA2-59-1 by using the method described by Schrader et al. (1998b). Stock solutions of DNA1-19-1 and DNA2-59-1 were prepared so that final concentrations screened for 96-hour IC50 determinations were as follows: 1) 0, 0.01, 0.033, 0.1, 0.333, 1.0, 3.3, and 10.0 μM DNA1-19-1 for both O. perornata and S. capricornutum; 2) 0, 0.003, 0.01, 0.033, 0.1, 0.333, 1.0, and 3.333 μM DNA2-59-1 for O. perornata; and 3) 0, 0.1, 0.333, 1.0, 3.333, 10.0, 33.333, and 100.0 μM DNA2-59-1 for S. capricornutum. Estimation of the IC50 was determined by plotting 96-hour absorbance readings against logarithmic dilution values of the anthraquinone analogs. The screening results of the anthraquinone derivatives and commercially available analogs of anthraquinone are presented in Tables 1 and 2, respectively. The results in Table 1 reveal that DNA1-19-1 and DNA2-59-1 are the most promising analogs since these two compounds had the lowest LOEC and LCIC values for O. perornata (10 nM and 100 nM, respectively). Based upon IC50 results in Table 3, DNA2-59-1 appears to be more toxic and selective towards O. perornata than DNA1-19-1.
(§5) The anthraquinone derivatives were screened for selective toxicity towards Oscillatoria perornata, previously isolated from a Mississippi catfish pond, using the method of Schrader et al. (A rapid bioassay for selective algicides. Weed Technol. (1997), vol. 11, pp. 767-774). The green alga Selenastrum capricornutum (obtained from the United States Environmental Protection Agency, Corvallis, Oreg.) was used as the representative green algal species in the bioassay since it is a common species found in southeastern United States catfish ponds. Absorbance readings were graphed, and graphs were used to determine the LOEC (lowest-observed-effect concentration) and the LCIC (lowest-complete-inhibition concentration) for each anthraquinone analog. In addition, a 96-hour 50% inhibition concentration (IC50) was determined for DNA1-19-1 and DNA2-59-1 by using the method described by Schrader et al. (K. K. Schradar, M. Q. de Regt, P. D. Tidwell, C. S. Tucker and S. O. Duke, Selective growth inhibition of the musty-odor producing cyanobacterium Oscillatoria cf. chalybea by natural compounds. Bull. Environ. Contam. Toxicol. (1998a), vol.60, pp. 651-658). Stock solutions of DNA1-19-1 and DNA2-59-1 were prepared so that final concentrations screened for 96-hour IC50 determinations were as follows: 1) 0, 0.01, 0.033, 0.1, 0.333, 1.0, 3.3, and 10.0 μM DNA1-19-1 for both O. perornata and S. capricornutum; 2) 0, 0.003, 0.01, 0.033, 0.1, 0.333, 1.0, and 3.333 μM DNA2-59-1 for O. perornata; and 3) 0, 0.1, 0.333, 1.0, 3.333, 10.0, 33.333, and 100.0 μM DNA2-59-1 for S. capricornutum. Estimation of the IC50 was determined by plotting 96-hour absorbance readings against logarithmic dilution values of the anthraquinone analogs. […]

[5] = test system: Oscillatoria perornata; assay: as above; assay type: cell-based; settings: rapid screening; for MIC: read-out: LCIC (lowest-complete-inhibition concentration), Oscillatoria perornata; for minimal effective concentration: read-out: LOEC (lowest-observed-effect concentration), Oscillatoria perornata
Excerpt: as §3, §4, §5

Structure (SMILES)	IC50 [1] [µM]	IC50 [2] [µM]	selective toxicity towards O. perornata compared to S. capricornutum (result in words) [2]	solubility in water [3]	LCIC (lowest-complete-inhibition concentration), Selenastrum capricornutum [4]	LOEC (lowest-observed-effect concentration), Selenastrum capricornutum [4]	MIC [5] [µM]	minimal effective concentration [5] [nM]	IC50 ([1]; Selenastrum capricornutum) [µM]	IC50 ([2]; Planktothrix perornata) [µM]	MIC ([4]; Selenastrum capricornutum, read-out: LCIC (lowest-complete-inhibition concentration), Selenastrum capricornutum) [µM]	minimal effective concentration ([4]; Selenastrum capricornutum, read-out: LOEC (lowest-observed-effect concentration), Selenastrum capricornutum) [µM]	MIC ([5]; Planktothrix perornata) [µM]	minimal effective concentration ([5]; Planktothrix perornata) [nM]
CCN(CC)CCCC(C)NCc1ccc2c(c1)C(=O)c1ccccc1C2=O.O=P(O)(O)O.O=P(O)(O)O (stereo not shown) [DNA1-19-1, 2-[methylamino-N-(1′-methyl-4′-N,N-diethylaminobutyl)]-9,10-anthraquinone diphosphate]	5.01	0.063	very selectively toxic	soluble in water	10,000 nM	10,000 nM	0.1	10						
CC(C)NCc1ccc2c(c1)C(=O)c1ccccc1C2=O [DNA2-59-1, 2-[methylamino-N-(1′-methylethyl)]-9,10-anthraquinone monophosphate]			very selectively toxic	soluble in water					5.62	0.0063	100	10	0.1	10
